Assay results from ChEMBL document CHEMBL4270495, “Oleanane-, ursane-, and quinone methide friedelane-type triterpenoid derivatives: Recent advances in cancer treatment” (Eur J Med Chem, 2017).

Key:
Type in all cases: functional, cell-based
BGC-823 = assay: Cytotoxicity in human BGC823 cells assessed as reduction in cell viability incubated for 72 hrs by MTT assay; settings: BGC-823, 72 h
MDA-MB-231 = assay: Cytotoxicity in human MDA-MB-231 cells assessed as reduction in cell viability incubated for 24 hrs by MTT assay; settings: MDA-MB-231, 24 h
MCF7 = assay: Cytotoxicity in human MCF7 cells assessed as reduction in cell viability incubated for 24 hrs by MTT assay; settings: MCF7, 24 h
TERT-RPE1 = assay: Cytotoxicity in human hTERT-RPE1 cells assessed as reduction in cell viability incubated for 24 hrs by MTT assay; settings: RPE-1, 24 h
HeLa = assay: Cytotoxicity in human HeLa cells assessed as reduction in cell viability incubated for 72 hrs by MTT assay
HT-29 = assay: Cytotoxicity in human HT-29 cells assessed as reduction in cell viability incubated for 72 hrs by MTT assay; settings: HT-29, 72 h
HepG2 = assay: Cytotoxicity in human HepG2 cells assessed as reduction in cell viability incubated for 72 hrs by MTT assay; settings: HepG2, 72 h

Row | SMILES | IC50 (BGC-823) | IC50 (MDA-MB-231) | IC50 (MCF7) | IC50 (TERT-RPE1) | also measured
1 | C[C@H]1[C@H](C)CC[C@]2(C(=O)OCCCCN3CCOCC3)CC[C@]3(C)C(=CC[C@@H]4[C@@]5(C)CC[C@H](O)C(C)(C)[C@@H]5CC[C@]43C)[C@H]12 | 6.5 µM |  |  |  | 
2 | C[C@H]1[C@H](C)CC[C@]2(C(=O)OCCCBr)CC[C@]3(C)C(=CC[C@@H]4[C@@]5(C)CC[C@H](O)C(C)(C)[C@@H]5CC[C@]43C)[C@H]12 [BROMOPROPYL-3BETA-HYDROXY-URS-12-EN-28-OATE] | 6.5 µM |  |  |  | 
3 | COC(=O)/C=C/c1cccc(OC(=O)[C@@]2(C)CC[C@]3(C)CC[C@]4(C)C(=CC(=O)[C@@H]5[C@@]6(C)CC[C@H](OC(=O)[C@@H](N)CC[Se]C)C(C)(C)[C@@H]6CC[C@]54C)[C@H]3C2)c1 |  | 2.46 µM | 3.48 µM | 4.55 µM | 
4 | C[C@H]1[C@H](C)CC[C@]2(C(=O)OCCCN3CCOCC3)CC[C@]3(C)C(=CC[C@@H]4[C@@]5(C)CC[C@H](O)C(C)(C)[C@@H]5CC[C@]43C)[C@H]12 | 7.3 µM |  |  |  | 
5 | C[C@H]1[C@H](C)CC[C@]2(C(=O)OCCBr)CC[C@]3(C)C(=CC[C@@H]4[C@@]5(C)CC[C@H](O)C(C)(C)[C@@H]5CC[C@]43C)[C@H]12 | 12.4 µM |  |  |  | 
6 | CCOC(=O)/C=C/c1ccc(OC(=O)[C@@]2(C)CC[C@]3(C)CC[C@]4(C)C(=CC(=O)[C@@H]5[C@@]6(C)CC[C@H](OC(=O)[C@@H](N)CC[Se]C)C(C)(C)[C@@H]6CC[C@]54C)[C@H]3C2)c(OC)c1 |  | 3.49 µM | 8.45 µM | 12.3 µM | 
7 | C[C@H]1[C@H](C)CC[C@]2(C(=O)OCCCCBr)CC[C@]3(C)C(=CC[C@@H]4[C@@]5(C)CC[C@H](O)C(C)(C)[C@@H]5CC[C@]43C)[C@H]12 [BROMOBUTYL-3BETA-HYDROXY-URS-12-EN-28-OATE] | 10 µM |  |  |  | 
8 | C[C@H]1[C@H](C)CC[C@]2(C(=O)OCCCCN3CCCC3)CC[C@]3(C)C(=CC[C@@H]4[C@@]5(C)CC[C@H](O)C(C)(C)[C@@H]5CC[C@]43C)[C@H]12 | 7.2 µM |  |  |  | 
9 | COC(=O)/C=C/c1ccc(OC(=O)[C@@]2(C)CC[C@]3(C)CC[C@]4(C)C(=CC(=O)[C@@H]5[C@@]6(C)CC[C@H](OC(=O)[C@@H](N)CC[Se]C)C(C)(C)[C@@H]6CC[C@]54C)[C@H]3C2)c(OC)c1 |  | 1.37 µM | 1.88 µM | 4.93 µM | 
10 | C[C@H]1[C@H](C)CC[C@]2(C(=O)OCCCN3CCCCC3)CC[C@]3(C)C(=CC[C@@H]4[C@@]5(C)CC[C@H](O)C(C)(C)[C@@H]5CC[C@]43C)[C@H]12 | 7.2 µM |  |  |  | 
11 | C[C@H]1[C@H](C)CC[C@]2(C(=O)OCCCN3CCCC3)CC[C@]3(C)C(=CC[C@@H]4[C@@]5(C)CC[C@H](O)C(C)(C)[C@@H]5CC[C@]43C)[C@H]12 | 7.6 µM |  |  |  | 
12 | COC(=O)/C=C/c1ccc(OC(=O)[C@@]2(C)CC[C@]3(C)CC[C@]4(C)C(=CC(=O)[C@@H]5[C@@]6(C)CC[C@H](OC(=O)[C@@H](N)CCSC)C(C)(C)[C@@H]6CC[C@]54C)[C@H]3C2)c(OC)c1 |  | 3.52 µM | 6 µM | 10.4 µM | 
13 | CCOC(=O)/C=C/c1ccc(OC(=O)[C@@]2(C)CC[C@]3(C)CC[C@]4(C)C(=CC(=O)[C@@H]5[C@@]6(C)CC[C@H](OC(=O)[C@@H](N)CCSC)C(C)(C)[C@@H]6CC[C@]54C)[C@H]3C2)cc1 |  | 2.31 µM | 2.65 µM | 5.65 µM | 
14 | CCOC(=O)/C=C/c1ccc(OC)c(OC(=O)[C@@]2(C)CC[C@]3(C)CC[C@]4(C)C(=CC(=O)[C@@H]5[C@@]6(C)CC[C@H](OC(=O)[C@@H](N)CC[Se]C)C(C)(C)[C@@H]6CC[C@]54C)[C@H]3C2)c1 |  | 3.27 µM | 6.93 µM | 10.1 µM | 
15 | COC(=O)/C=C/c1ccc(OC(=O)[C@@]2(C)CC[C@]3(C)CC[C@]4(C)C(=CC(=O)[C@@H]5[C@@]6(C)CC[C@H](OC(=O)[C@@H](N)CCSC)C(C)(C)[C@@H]6CC[C@]54C)[C@H]3C2)cc1 |  | 6.43 µM | 7.24 µM | 8.48 µM | 
16 | CC(=O)OC[C@@]1(C)[C@@H]2CC[C@]3(C)[C@H](CC=C4[C@@H]5[C@@H](C)[C@H](C)CC[C@]5(C(=O)NO)CC[C@]43C)[C@@]2(C)C[C@@H](OC(C)=O)[C@@H]1OC(C)=O |  |  |  |  | IC50 (HeLa): 1.62 µM

Row | SMILES | IC50 (BGC-823) | IC50 (MDA-MB-231) | IC50 (MCF7) | IC50 (TERT-RPE1) | also measured
17 | CCOC(=O)/C=C/c1cccc(OC(=O)[C@@]2(C)CC[C@]3(C)CC[C@]4(C)C(=CC(=O)[C@@H]5[C@@]6(C)CC[C@H](OC(=O)[C@@H](N)CCSC)C(C)(C)[C@@H]6CC[C@]54C)[C@H]3C2)c1 |  | 1.92 µM | 5.79 µM | 6.63 µM | 
18 | CCOC(=O)/C=C/c1cccc(OC(=O)[C@@]2(C)CC[C@]3(C)CC[C@]4(C)C(=CC(=O)[C@@H]5[C@@]6(C)CC[C@H](OC(=O)[C@@H](N)CC[Se]C)C(C)(C)[C@@H]6CC[C@]54C)[C@H]3C2)c1 |  | 1.53 µM | 2.57 µM | 3.7 µM | 
19 | Cc1nc(C)c(COC(=O)[C@]23CCC(C)(C)C[C@H]2C2=CC[C@@H]4[C@@]5(C)CC[C@H](OC(=O)[C@@H](N)CO)C(C)(C)[C@@H]5CC[C@@]4(C)[C@]2(C)CC3)nc1C | 4.89 µM |  |  |  | IC50 (HeLa): 5.21 µM; IC50 (HT-29): 4.82 µM; IC50 (HepG2): 4.78 µM
20 | C[C@H]1[C@H](C)CC[C@]2(C(=O)OCCN3CCCC3)CC[C@]3(C)C(=CC[C@@H]4[C@@]5(C)CC[C@H](O)C(C)(C)[C@@H]5CC[C@]43C)[C@H]12 | 4.5 µM |  |  |  | 
21 | COC(=O)/C=C/c1ccc(OC)c(OC(=O)[C@@]2(C)CC[C@]3(C)CC[C@]4(C)C(=CC(=O)[C@@H]5[C@@]6(C)CC[C@H](OC(=O)[C@@H](N)CC[Se]C)C(C)(C)[C@@H]6CC[C@]54C)[C@H]3C2)c1 |  | 3.13 µM | 5.12 µM | 9.79 µM | 
22 | C[C@H]1[C@H](C)CC[C@]2(C(=O)OCCCCN3CCCCC3)CC[C@]3(C)C(=CC[C@@H]4[C@@]5(C)CC[C@H](O)C(C)(C)[C@@H]5CC[C@]43C)[C@H]12 | 5 µM |  |  |  | 
23 | CC(=O)OC[C@@]1(C)[C@@H]2CC[C@]3(C)[C@H](CC=C4[C@@H]5[C@@H](C)[C@H](C)CC[C@]5(C(=O)N(C)O)CC[C@]43C)[C@@]2(C)C[C@@H](OC(C)=O)[C@@H]1OC(C)=O |  |  |  |  | IC50 (HeLa): 3.77 µM
24 | Cc1nc(C)c(COC(=O)[C@]23CCC(C)(C)C[C@H]2C2=CC[C@@H]4[C@@]5(C)CC[C@H](OC(=O)[C@H](C)N)C(C)(C)[C@@H]5CC[C@@]4(C)[C@]2(C)CC3)nc1C | 4.47 µM |  |  |  | IC50 (HeLa): 7.69 µM; IC50 (HT-29): 4.77 µM; IC50 (HepG2): 2.32 µM
25 | COC(=O)/C=C/c1ccc(OC)c(OC(=O)[C@@]2(C)CC[C@]3(C)CC[C@]4(C)C(=CC(=O)[C@@H]5[C@@]6(C)CC[C@H](OC(=O)[C@@H](N)CCSC)C(C)(C)[C@@H]6CC[C@]54C)[C@H]3C2)c1 |  | 4.56 µM | 8.7 µM | 8.92 µM | 
26 | CCOC(=O)/C=C/c1ccc(OC(=O)[C@@]2(C)CC[C@]3(C)CC[C@]4(C)C(=CC(=O)[C@@H]5[C@@]6(C)CC[C@H](OC(=O)[C@@H](N)CCSC)C(C)(C)[C@@H]6CC[C@]54C)[C@H]3C2)c(OC)c1 |  | 5.36 µM | 8.62 µM | 16.3 µM | 
27 | CCOC(=O)/C=C/c1ccc(OC(=O)[C@@]2(C)CC[C@]3(C)CC[C@]4(C)C(=CC(=O)[C@@H]5[C@@]6(C)CC[C@H](OC(=O)[C@@H](N)CC[Se]C)C(C)(C)[C@@H]6CC[C@]54C)[C@H]3C2)cc1 |  | 1.86 µM | 2.42 µM | 7.08 µM | 
28 | Cc1nc(C)c(COC(=O)[C@]23CCC(C)(C)C[C@H]2C2=CC[C@@H]4[C@@]5(C)CC[C@H](OC(=O)[C@@H]6CCCN6)C(C)(C)[C@@H]5CC[C@@]4(C)[C@]2(C)CC3)nc1C | 4.97 µM |  |  |  | IC50 (HeLa): 6.75 µM; IC50 (HT-29): 3.21 µM; IC50 (HepG2): 2.39 µM
29 | CCOC(=O)/C=C/c1ccc(OC)c(OC(=O)[C@@]2(C)CC[C@]3(C)CC[C@]4(C)C(=CC(=O)[C@@H]5[C@@]6(C)CC[C@H](OC(=O)[C@@H](N)CCSC)C(C)(C)[C@@H]6CC[C@]54C)[C@H]3C2)c1 |  | 4.67 µM | 8.81 µM | 12.5 µM | 
30 | COC(=O)/C=C/c1ccc(OC(=O)[C@@]2(C)CC[C@]3(C)CC[C@]4(C)C(=CC(=O)[C@@H]5[C@@]6(C)CC[C@H](OC(=O)[C@@H](N)CC[Se]C)C(C)(C)[C@@H]6CC[C@]54C)[C@H]3C2)cc1 |  | 6.27 µM | 6.02 µM | 6.33 µM | 
31 | C[C@H]1[C@H](C)CC[C@]2(C(=O)OCCN3CCOCC3)CC[C@]3(C)C(=CC[C@@H]4[C@@]5(C)CC[C@H](O)C(C)(C)[C@@H]5CC[C@]43C)[C@H]12 | 8.8 µM |  |  |  | 
32 | COC(=O)/C=C/c1cccc(OC(=O)[C@@]2(C)CC[C@]3(C)CC[C@]4(C)C(=CC(=O)[C@@H]5[C@@]6(C)CC[C@H](OC(=O)[C@@H](N)CCSC)C(C)(C)[C@@H]6CC[C@]54C)[C@H]3C2)c1 |  | 3.54 µM | 7.2 µM | 8.49 µM | 
